Measured values: US10799552B2, “Methods for treating diabetic neurotherapy” (Massachusetts Eye and Ear Infirmary, priority 2011, dated 2020)
Peptide text beside a SMILES is read from it. * marks the point of attachment. Cbz = O=C(OCc1ccccc1)*; CH2F = FC*

Tested on: optic nerve axons of retinal ganglion cells
Experiment: Axon regeneration after optic nerve crush injury (βIII-tubulin staining of optic nerve sections)
Assay type: in vivo, mouse
Details: intravitreal, ZVAD 300 μM and/or Nec-1 4 mM; 14 days after optic nerve injury; FIGS. 3B-3E
Experimental: Intravitreal injections were performed as follows. Briefly, the tip of a 33 gauge needle (Hamilton, Reno, Nev.) was carefully inserted through the sclera into the intravitreal space to reduce intraocular pressure. Then, the needle was extracted, loaded with compounds and tangentially reinserted through the sclera into the intravitreal space, inducing a self-sealing wound tunnel. After injection, the absence of choroidal bleeding was confirmed. At specified times after injury, mice were sacrificed with an overdose of sodium pentobarbital, and eyes were enucleated.
To investigate the efficacy of necrosis inhibitor and pan-caspase inhibitor in promoting axon regeneration, eight-weeks-old mice were subjected to optic nerve crush surgery as previously described. […]
Axon regeneration was assessed by obtaining longitudinal sections of the optic nerve and counting the number of axons at pre-specified distances from the injury site. […] Axons were counted manually in at least eight longitudinal sections per case at pre-specified distances from the injury site. The number of regenerating axons at various di stances are determined as described previously (Leon et al., (2000) J NEUROSCI 20: 4615-4626). […]

Structure (SMILES)	axon regeneration (axon staining beyond injury site)
COC(=O)CC(NC(=O)C(C)NC(=O)C(NC(=O)OCc1ccccc1)C(C)C)C(=O)CF (stereo not drawn) [ZVAD, Benzyloxycarbonyl-Val-Ala-Asp(OMe)-fluoromethylketone] (Cbz-Val-Ala-Asp(OMe)-CH2F; configuration not given here)	minimal effects on axon regeneration
CN1C(=O)NC(Cc2c[nH]c3c(Cl)cccc23)C1=O (centres unmarked) [Nec-1]	minimal effects on axon regeneration
